Data published in patent publication US20230277630A1, “METHODS AND COMPOSITIONS FOR TREATING AMYOTROPHIC LATERAL SCLEROSIS” (Amylyx Pharmaceuticals, Inc., priority 2022, published 2023).
Values joined by “and” are separate entries in the source; they are usually repeats but may differ in a detail not shown here. Identical values can stand only once.

Assays:
[1] = CYP reaction phenotyping: CYP control (negative control without CYP enzymes); conditions: 20 min, pH 7.4
Procedure: The reaction was initiated by the addition of NADPH, followed by incubation at 37° C.

OCT2 = biological target: T1, OCT2 (Homo sapiens, UniProt O15244); test: OCT2 inhibitor (IC50) assessment, MPP+ uptake in transfected HEK cells
T1 sequence (O15244 1-555): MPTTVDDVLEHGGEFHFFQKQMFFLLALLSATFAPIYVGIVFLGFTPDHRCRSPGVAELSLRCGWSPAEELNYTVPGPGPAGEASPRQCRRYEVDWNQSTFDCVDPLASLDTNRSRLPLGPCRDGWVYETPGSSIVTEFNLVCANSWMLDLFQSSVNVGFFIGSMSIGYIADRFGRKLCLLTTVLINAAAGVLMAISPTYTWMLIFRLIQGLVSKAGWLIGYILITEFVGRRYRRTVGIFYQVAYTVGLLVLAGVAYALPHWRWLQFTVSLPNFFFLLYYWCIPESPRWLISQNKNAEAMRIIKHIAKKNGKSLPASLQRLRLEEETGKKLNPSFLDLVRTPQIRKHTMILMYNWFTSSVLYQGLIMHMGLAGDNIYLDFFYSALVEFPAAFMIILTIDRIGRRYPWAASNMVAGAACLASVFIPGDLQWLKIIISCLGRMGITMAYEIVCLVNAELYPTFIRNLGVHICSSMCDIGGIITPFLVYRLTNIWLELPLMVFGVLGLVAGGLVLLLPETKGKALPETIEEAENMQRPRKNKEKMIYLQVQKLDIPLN

MATE1 = biological target: T2, MATE1 (Homo sapiens, UniProt Q96FL8); test: MATE1 inhibitor (IC50) assessment, metformin uptake in transfected HEK cells
T2 sequence (Q96FL8 1-570): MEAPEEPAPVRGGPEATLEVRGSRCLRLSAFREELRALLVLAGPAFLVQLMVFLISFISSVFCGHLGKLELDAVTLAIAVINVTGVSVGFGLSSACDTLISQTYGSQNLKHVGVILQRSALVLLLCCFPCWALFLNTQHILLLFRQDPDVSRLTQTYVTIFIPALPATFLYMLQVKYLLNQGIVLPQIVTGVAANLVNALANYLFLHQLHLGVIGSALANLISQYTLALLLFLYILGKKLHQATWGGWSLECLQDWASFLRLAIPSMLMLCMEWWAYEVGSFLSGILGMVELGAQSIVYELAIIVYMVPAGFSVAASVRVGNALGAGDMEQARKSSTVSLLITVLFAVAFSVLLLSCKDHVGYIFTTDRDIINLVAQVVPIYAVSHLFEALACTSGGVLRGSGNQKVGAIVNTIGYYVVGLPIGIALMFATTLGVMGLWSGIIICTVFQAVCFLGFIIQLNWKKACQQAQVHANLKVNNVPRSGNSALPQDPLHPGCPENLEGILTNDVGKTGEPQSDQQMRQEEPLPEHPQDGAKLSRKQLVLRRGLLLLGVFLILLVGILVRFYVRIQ

P-gp and BCRP = P-gp and BCRP substrate assessment, bidirectional permeability in C2BBe1 cells; conditions: C2BBe1 cells, 10 μM probe; for recovery at 10 μM / Papp A→B at 10 µM / Papp B→A at 10 µM: human; for Papp A→B at 10 µM / Papp B→A at 10 µM: Caco-2, pH 7.4, probe digoxin (P-gp), cladribine (BCRP); for Papp A→B at 10 µM: AP-to-BL Papp; for Papp B→A at 10 µM: BL-to-AP Papp
Procedure: The P-gp and BCRP substrate assessment was conducted in C2BBe1 cell monolayers. […] LY was co-dosed with each dosing solution at a nominal concentration of 200 μM.
The cell culture medium was aspirated, and the cell monolayers were rinsed once with HBSSg_7.4. […] For receiver samples, aliquots (300 μL) were taken at pre-selected time points. […] For donor samples, aliquots (50 μL) were taken at pre-selected time points without replacement.

MATE2K = MATE2K (Homo sapiens, UniProt Q86VL8); test: MATE2K inhibitor (IC50) assessment, metformin uptake in transfected HEK cells
[2] = 5 μM MPP+ alone, 2 min, replicates 1, 2 and Average
[3] = batch used with Sol_1, Sol_3, and Sol_4, single replicates
[4] = batch used with Sol_2, single replicates
[5] = 50 μM Metformin alone, 10 min, HBSSg_8.5, replicates and Average
[6] = absence of TUDCA and PB or positive inhibitor
[7] = 50 μM Metformin alone, 10 min, HBSSg_8.5, replicates 1, 2 and Average

Chain of MATE2K (Q86VL8 1-566 isoform Q86VL8-3): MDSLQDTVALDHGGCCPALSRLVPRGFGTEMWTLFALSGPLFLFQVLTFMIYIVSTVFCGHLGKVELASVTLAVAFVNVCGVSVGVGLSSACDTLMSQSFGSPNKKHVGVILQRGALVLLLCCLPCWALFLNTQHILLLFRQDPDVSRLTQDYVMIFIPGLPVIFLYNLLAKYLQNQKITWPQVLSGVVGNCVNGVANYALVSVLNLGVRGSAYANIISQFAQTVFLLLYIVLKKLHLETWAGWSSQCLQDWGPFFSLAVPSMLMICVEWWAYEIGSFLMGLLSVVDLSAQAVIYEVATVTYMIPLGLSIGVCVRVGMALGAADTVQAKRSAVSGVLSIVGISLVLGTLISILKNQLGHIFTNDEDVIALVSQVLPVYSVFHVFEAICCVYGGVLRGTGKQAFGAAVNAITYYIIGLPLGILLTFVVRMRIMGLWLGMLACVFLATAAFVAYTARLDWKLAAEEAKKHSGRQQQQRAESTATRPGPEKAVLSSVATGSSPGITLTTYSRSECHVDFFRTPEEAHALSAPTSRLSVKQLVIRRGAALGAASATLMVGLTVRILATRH

SMILES: CCN(CC)Cc1cc(Nc2ccnc3cc(Cl)ccc23)ccc1O [Amodiaquine]
- Measured Metabolite [1]: 0 µM

SMILES: C[n+]1ccc(-c2ccccc2)cc1 [MPP+, 1-methyl-4-phenylpyridinium]
- Net Influx Rate of MPP+ (OCT2) (OCT2; 5 μM MPP+ alone): 847 pmol/mg protein/minute
- influx rate ratio of MPP+ (OCT2 over vector control) (OCT2; 5 μM MPP+ alone, 2 min): 48.9
- Influx Rate of MPP+, OCT2-HEK Cells (OCT2; [2]): 896 pmol/mg protein/minute and 833 pmol/mg protein/minute
- Influx Rate of MPP+, Vector Control Cells (OCT2; [2]): 19.0 pmol/mg protein/minute and 16.3 pmol/mg protein/minute
- influx rate ratio of MPP+ (OCT2 over vector control) (OCT2; absence of TUDCA and PB or imipramine): 48.9

SMILES: CN/C(=N/CCSCc1nc[nH]c1C)NC#N [cimetidine]
- Percentage Inhibition of MATE1 (MATE1; 50 μM Metformin + 100 μM Cimetidine): 99.2%
- inhibition of metformin uptake in MATE1-transfected cells (MATE1; known inhibitor): 99.2%

SMILES: C[C@H]1O[C@@H](O[C@H]2[C@@H](O)C[C@H](O[C@H]3[C@@H](O)C[C@H](O[C@H]4CC[C@@]5(C)[C@H](CC[C@@H]6[C@@H]5C[C@@H](O)[C@]5(C)[C@@H](C7=CC(=O)OC7)CC[C@]65O)C4)O[C@@H]3C)O[C@@H]2C)C[C@H](O)[C@@H]1O [digoxin]
- AP-to-BL Papp (P-gp and BCRP; [3]): 0.350 10^−6 cm/s and 0.234 10^−6 cm/s
- AP-to-BL Recovery (P-gp and BCRP; [3]): 95.3%
- BL-to-AP Papp (P-gp and BCRP; [3]): 14.6 10^−6 cm/s and 11.2 10^−6 cm/s
- BL-to-AP Recovery (P-gp and BCRP; [3]): 94.9% and 83.1%
- AP-to-BL Papp (P-gp and BCRP; [4]): 0.381 10^−6 cm/s and 0.298 10^−6 cm/s
- AP-to-BL Recovery (P-gp and BCRP; [4]): 92.4%
- BL-to-AP Papp (P-gp and BCRP; [4]): 12.1 10^−6 cm/s and 12.8 10^−6 cm/s
- BL-to-AP Recovery (P-gp and BCRP; [4]): 96.7% and 90.2%
- recovery at 10 μM (P-gp and BCRP; Caco-2, pH 7.4, AP-to-BL Recovery, batch used with Sol_1, Sol_3, and Sol_4, Average): 89.5%
- recovery at 10 μM (P-gp and BCRP; Caco-2, pH 7.4, AP-to-BL Recovery, batch used with Sol_1, Sol_3, and Sol_4, single replicates): 90.9%
- recovery at 10 μM (P-gp and BCRP; Caco-2, pH 7.4, AP-to-BL Recovery, batch used with Sol_2, Average): 86.3%
- recovery at 10 μM (P-gp and BCRP; Caco-2, pH 7.4, AP-to-BL Recovery, batch used with Sol_2, single replicates): 77.9%
- recovery at 10 μM (P-gp and BCRP; Caco-2, pH 7.4, BL-to-AP Recovery, batch used with Sol_1, Sol_3, and Sol_4, Average): 87.4%
- recovery at 10 μM (P-gp and BCRP; Caco-2, pH 7.4, BL-to-AP Recovery, batch used with Sol_1, Sol_3, and Sol_4, single replicates): 84.1%
- recovery at 10 μM (P-gp and BCRP; Caco-2, pH 7.4, BL-to-AP Recovery, batch used with Sol_2, Average): 92.1%
- recovery at 10 μM (P-gp and BCRP; Caco-2, pH 7.4, BL-to-AP Recovery, batch used with Sol_2, single replicates): 89.5%
- Papp A→B at 10 µM (P-gp and BCRP; [3]): 0.326 ×10⁻⁶ cm/s
- Papp A→B at 10 µM (P-gp and BCRP; batch used with Sol_2, Average): 0.334 ×10⁻⁶ cm/s
- Papp A→B at 10 µM (P-gp and BCRP; [4]): 0.323 ×10⁻⁶ cm/s
- Papp B→A at 10 µM (P-gp and BCRP; batch used with Sol_1, Sol_3, and Sol_4, Average): 12.6 ×10⁻⁶ cm/s
- Papp B→A at 10 µM (P-gp and BCRP; [3]): 12.1 ×10⁻⁶ cm/s
- Papp B→A at 10 µM (P-gp and BCRP; batch used with Sol_2, Average): 12.8 ×10⁻⁶ cm/s
- Papp B→A at 10 µM (P-gp and BCRP; [4]): 13.5 ×10⁻⁶ cm/s

SMILES: CN(C)C(=N)N=C(N)N [metformin]
- Net Influx Rate of Metformin (MATE1) (MATE1; 50 μM Metformin alone): 572 pmol/mg protein/minute
- influx rate ratio of metformin (MATE1 over vector control) (MATE1; 50 μM Metformin alone): 43.4
- Influx Rate of Metformin, MATE1-HEK Cells (MATE1; [5]): 515 pmol/mg protein/minute and 656 pmol/mg protein/minute
- Influx Rate of Metformin, Vector Control Cells (MATE1; [5]): 15.6 pmol/mg protein/minute and 11.3 pmol/mg protein/minute
- influx rate ratio of metformin (MATE1 over vector control) (MATE1; [6]): 43.4
- Net Influx Rate of Metformin (MATE2K) (MATE2K; 50 μM Metformin alone): 36.1 pmol/mg protein/minute
- influx rate ratio of metformin (MATE2K over vector control) (MATE2K; 50 μM Metformin alone): 2.70
- Influx Rate of Metformin, MATE2K HEK Cells (MATE2K; [7]): 54.5 pmol/mg protein/minute and 60.2 pmol/mg protein/minute
- Influx Rate of Metformin, Vector Control Cells (MATE2K; [7]): 19.6 pmol/mg protein/minute and 22.8 pmol/mg protein/minute
- influx rate ratio of metformin (MATE2K over vector control) (MATE2K; [6]): 2.70
